Experimental data reported in patent publication US20120142646A1, “Novel Compounds 621” (priority 2006, published 2012).
Counter-ions that a name gives are not always drawn.

Biological target: T1, Adrenergic β2 (Homo sapiens, UniProt P07550)
T1 construct: Adherent H292 cells were removed from tissue culture flasks; endogenous in cells; host or cells: H292 cells
Experiment: Adrenergic β2 mediated cAMP production in H292 cells (AlphaScreen cAMP detection)
Format: cell-based
Design: key to β2 Int Act: fraction of formoterol maximum activity (formoterol = 1)
Conditions: Intrinsic Activity as a fraction relative to the maximum activity determined for formoterol
Procedure: Adrenergic β2 Mediated cAMP Production
H292 cells were grown in 225 cm2 flasks incubator at 37° C., 5% CO2 in RPMI medium containing, 10% (v/v) FBS (foetal bovine serum) and 2 mM L-glutamine.
Adherent H292 cells were removed from tissue culture flasks by treatment with Accutase™ cell detachment solution for 15 minutes. Flasks were incubated for 15 minutes in a humidified incubator at 37° C., 5% CO2. Detached cells were re-suspended in RPMI media (containing 10% (v/v) FBS and 2 mM L-glutamine) at 1×10^6 cells per mL. 10000 cells in 100 μL were added to each well of a tissue-culture-treated 96-well plate and the cells incubated overnight in a humidified incubator at 37° C., 5% CO2. The culture media was removed and cells were washed twice with 100 μL assay buffer and replaced with 50 μL assay buffer (HBSS solution containing 10 mM HEPES pH7.4 and 5 mM glucose). Cells were rested at room temperature for 20 minutes after which time 25 μL of rolipram (1.2 mM made up in assay buffer containing 2.4% (v/v) dimethylsulphoxide) was added. Cells were incubated with rolipram for 10 minutes after which time test compounds were added and the cells were incubated for 60 minutes at room temperature. The final rolipram concentration in the assay was 300 μM and final vehicle concentration was 1.6% (v/v) dimethylsulphoxide. The reaction was stopped by removing supernatants, washing once with 100 μL assay buffer and replacing with 50 μL lysis buffer. The cell monolayer was frozen at −80° C. for 30 minutes (or overnight).
AlphaScreen™ cAMP Detection
The concentration of cAMP (cyclic adenosine monophosphate) in the cell lysate was determined using AlphaScreen™ methodology. The frozen cell plate was thawed for 20 minutes on a plate shaker then 10 μL of the cell lysate was transferred to a 96-well white plate. 40 μL of mixed AlphaScreen™ detection beads pre-incubated with biotinylated cAMP, was added to each well and the plate incubated at room temperature for 10 hours in the dark. The AlphaScreen™ signal was measured using an EnVision spectrophotometer (Perkin-Elmer Inc.) with the recommended manufacturer's settings. cAMP concentrations were determined by reference to a calibration curve determined in the same experiment using standard cAMP concentrations. Concentration response curves for agonists were constructed and data was fitted to a four parameter logistic equation to determine both the pEC50 and Intrinsic Activity. Intrinsic Activity was expressed as a fraction relative to the maximum activity determined for formoterol in each experiment.

T1 sequence (P07550 whole entry): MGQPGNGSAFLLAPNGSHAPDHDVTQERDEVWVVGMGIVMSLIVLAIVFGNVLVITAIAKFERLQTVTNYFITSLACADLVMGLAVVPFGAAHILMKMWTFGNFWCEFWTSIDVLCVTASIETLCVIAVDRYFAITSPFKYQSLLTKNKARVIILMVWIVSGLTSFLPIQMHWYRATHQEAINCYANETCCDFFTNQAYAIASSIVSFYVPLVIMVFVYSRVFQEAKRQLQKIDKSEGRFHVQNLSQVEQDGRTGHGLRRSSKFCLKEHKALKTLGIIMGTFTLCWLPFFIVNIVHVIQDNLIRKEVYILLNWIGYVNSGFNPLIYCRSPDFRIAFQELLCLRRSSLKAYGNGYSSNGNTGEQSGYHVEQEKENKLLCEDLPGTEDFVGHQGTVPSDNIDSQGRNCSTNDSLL

Row | Structure (SMILES) | β2 Int Act
1 | CCCC[C@@H](C)N(CCNCCc1ccc(O)c2c1OCC(=O)N2)C(=O)CCNCCc1cc(F)cc(Cl)c1 [Example 50, (R)-3-(3-Chloro-5-fluorophenethylamino)-N-(hexan-2-yl)-N-(2-(2-(5-hydroxy-3-oxo-3,4-dihydro-2H-benzo[b][1,4]oxazin-8-yl)ethylamino)ethyl)propanamide bis(trifluoroacetate)] | 0.89
2 | CCCC[C@@H](C)N(CCNCCc1ccc(O)c2c1OCC(=O)N2)C(=O)CCNCCc1cc(F)cc(F)c1 [Example 51, (R)-3-(3,5-Difluorophenethylamino)-N-(hexan-2-yl)-N-(2-(2-(5-hydroxy-3-oxo-3,4-dihydro-2H-benzo[b][1,4]oxazin-8-yl)ethylamino)ethyl)propanamide bis(trifluoroacetate)] | 0.94
3 | CCCC[C@@H](C)N(CCNCCc1ccc(O)c2c1OCC(=O)N2)C(=O)CCNCCc1ccc(F)c(F)c1 [Example 52, (R)-3-(3,4-Difluorophenethylamino)-N-(hexan-2-yl)-N-(2-(2-(5-hydroxy-3-oxo-3,4-dihydro-2H-benzo[b][1,4]oxazin-8-yl)ethylamino)ethyl)propanamide bis(trifluoroacetate)] | 0.95
4 | CCCC[C@@H](C)N(CCNCCc1ccc(O)c2c1OCC(=O)N2)C(=O)CCNCCc1cccc(F)c1F [Example 53, (R)-3-(2,3-Difluorophenethylamino)-N-(hexan-2-yl)-N-(2-(2-(5-hydroxy-3-oxo-3,4-dihydro-2H-benzo[b][1,4]oxazin-8-yl)ethylamino)ethyl)propanamide bis(trifluoroacetate)] | 0.99
5 | CCCC[C@@H](C)N(CCNCCc1ccc(O)c2c1OCC(=O)N2)C(=O)CCNCCc1cc(F)ccc1F [Example 54, (R)-3-(2,5-Difluorophenethylamino)-N-(hexan-2-yl)-N-(2-(2-(5-hydroxy-3-oxo-3,4-dihydro-2H-benzo[b][1,4]oxazin-8-yl)ethylamino)ethyl)propanamide bis(trifluoroacetate)] | 0.96
6 | CCCC[C@@H](C)N(CCNCCc1ccc(O)c2c1OCC(=O)N2)C(=O)CCNCCc1ccc(Cl)c(Cl)c1 [Example 55, (R)-3-(3,4-Dichlorophenethylamino)-N-(hexan-2-yl)-N-(2-(2-(5-hydroxy-3-oxo-3,4-dihydro-2H-benzo[b][1,4]oxazin-8-yl)ethylamino)ethyl)propanamide bis(trifluoroacetate)] | 0.92
7 | CCCC[C@@H](C)N(CCNCCc1ccc(O)c2c1OCC(=O)N2)C(=O)CCNCCc1cc(C)ccc1F [Example 56, (R)-3-(2-Fluoro-5-methylphenethylamino)-N-(hexan-2-yl)-N-(2-(2-(5-hydroxy-3-oxo-3,4-dihydro-2H-benzo[b][1,4]oxazin-8-yl)ethylamino)ethyl)propanamide bis(trifluoroacetate)] | 0.91
8 | CCCC[C@@H](C)N(CCNCCc1ccc(O)c2c1OCC(=O)N2)C(=O)CCNCCc1cc(F)ccc1C [Example 57, (R)-3-(5-Fluoro-2-methylphenethylamino)-N-(hexan-2-yl)-N-(2-(2-(5-hydroxy-3-oxo-3,4-dihydro-2H-benzo[b][1,4]oxazin-8-yl)ethylamino)ethyl)propanamide bis(trifluoroacetate)] | 0.91
9 | CC[C@@H](C)N(CCNCCc1ccc(O)c2c1OCC(=O)N2)C(=O)CCNCCc1ccc(Cl)c(Cl)c1 [Example 58, (R)—N-sec-Butyl-3-(3,4-dichlorophenethylamino)-N-(2-(2-(5-hydroxy-3-oxo-3,4-dihydro-2H-benzo[b][1,4]oxazin-8-yl)ethylamino)ethyl)propanamide dihydrochloride] | 0.91
10 | CC(C)[C@@H](C)N(CCNCCc1ccc(O)c2c1OCC(=O)N2)C(=O)CCNCCc1ccc(Cl)c(Cl)c1 [Example 59, (R)-3-(3,4-Dichlorophenethylamino)-N-(2-(2-(5-hydroxy-3-oxo-3,4-dihydro-2H-benzo[b][1,4]oxazin-8-yl)ethylamino)ethyl)-N-(3-methylbutan-2-yl)propanamide dihydrochloride] | 0.87
11 | C[C@H](C1CCCCC1)N(CCNCCc1ccc(O)c2c1OCC(=O)N2)C(=O)CCNCCc1ccccc1 [Example 61, (R)—N-(1-Cyclohexylethyl)-N-(2-(2-(5-hydroxy-3-oxo-3,4-dihydro-2H-benzo[b][1,4]oxazin-8-yl)ethylamino)ethyl)-3-(phenethylamino)propanamide bis(trifluoroacetate)] | 0.84
12 | Cc1cc(CCNCCC(=O)N(CCNCCc2ccc(O)c3c2OCC(=O)N3)C2CCCCCC2)ccc1F [Example 62, N-Cycloheptyl-3-(4-fluoro-3-methylphenethylamino)-N-(2-(2-(5-hydroxy-3-oxo-3,4-dihydro-2H-benzo[b][1,4]oxazin-8-yl)ethylamino)ethyl)propanamide bis(trifluoroacetate)] | 0.86
13 | O=C1COc2c(CCNCCN(C(=O)CCNCCc3ccc(Cl)cc3)C3CCCCCC3)ccc(O)c2N1 [Example 63, 3-(4-Chlorophenethylamino)-N-cycloheptyl-N-(2-(2-(5-hydroxy-3-oxo-3,4-dihydro-2H-benzo[b][1,4]oxazin-8-yl)ethylamino)ethyl)propanamide bis(trifluoroacetate)] | 0.79
14 | O=C1COc2c(CCNCCN(C(=O)CCNCCc3cc(F)ccc3F)C3CCCCCC3)ccc(O)c2N1 [Example 64, N-Cycloheptyl-3-(2,5-difluorophenethylamino)-N-(2-(2-(5-hydroxy-3-oxo-3,4-dihydro-2H-benzo[b][1,4]oxazin-8-yl)ethylamino)ethyl)propanamide bis(trifluoroacetate)] | 0.88
15 | O=C1COc2c(CCNCCN(C(=O)CCNCCc3cc(F)cc(F)c3)C3CCCCCC3)ccc(O)c2N1 [Example 65, N-Cycloheptyl-3-(3,5-difluorophenethylamino)-N-(2-(2-(5-hydroxy-3-oxo-3,4-dihydro-2H-benzo[b][1,4]oxazin-8-yl)ethylamino)ethyl)propanamide bis(trifluoroacetate)] | 0.93
16 | O=C1COc2c(CCNCCN(C(=O)CCNCCc3cc(F)cc(Cl)c3)C3CCCCCC3)ccc(O)c2N1 [Example 66, 3-(3-Chloro-5-fluorophenethylamino)-N-cycloheptyl-N-(2-(2-(5-hydroxy-3-oxo-3,4-dihydro-2H-benzo[b][1,4]oxazin-8-yl)ethylamino)ethyl)propanamide bis(trifluoroacetate)] | 0.99
17 | O=C1COc2c(CCNCCN(C(=O)CCNCCc3ccc(F)c(F)c3)C3CCCCCC3)ccc(O)c2N1 [Example 67, N-Cycloheptyl-3-(3,4-difluorophenethylamino)-N-(2-(2-(5-hydroxy-3-oxo-3,4-dihydro-2H-benzo[b][1,4]oxazin-8-yl)ethylamino)ethyl)propanamide bis(trifluoroacetate)] | 0.87
18 | O=C1COc2c(CCNCCN(C(=O)CCNCCc3cccc(Cl)c3)C3CCCCCC3)ccc(O)c2N1 [Example 68, 3-(3-Chlorophenethylamino)-N-cycloheptyl-N-(2-(2-(5-hydroxy-3-oxo-3,4-dihydro-2H-benzo[b][1,4]oxazin-8-yl)ethylamino)ethyl)propanamide bis(trifluoroacetate)] | 0.93
19 | O=C1COc2c(CCNCCN(C(=O)CCNCCc3cccc(F)c3)C3CCCCCC3)ccc(O)c2N1 [Example 69, N-Cycloheptyl-3-(3-fluorophenethylamino)-N-(2-(2-(5-hydroxy-3-oxo-3,4-dihydro-2H-benzo[b][1,4]oxazin-8-yl)ethylamino)ethyl)propanamide bis(trifluoroacetate)] | 0.88
20 | O=C1COc2c(CCNCCN(C(=O)CCOCCc3ccccc3)C3CCCCC3)ccc(O)c2N1 [Example 70, N-Cyclohexyl-N-(2-(2-(5-hydroxy-3-oxo-3,4-dihydro-2H-benzo[b][1,4]oxazin-8-yl)ethylamino)ethyl)-3-phenethoxypropanamide trifluoroacetate] | 0.97
21 | Cl.O=C(CCOCCc1ccc(F)cc1)N(CCNCCc1ccc(O)c2[nH]c(=O)ccc12)C1CCCCC1 [Example 71, N-Cyclohexyl-3-(4-fluorophenethoxy)-N-(2-(2-(8-hydroxy-2-oxo-1,2-dihydroquinolin-5-yl)ethylamino)ethyl)propanamide hydrochloride] | 0.85
22 | Cl.O=C(CCOCCc1cccc(F)c1)N(CCNCCc1ccc(O)c2[nH]c(=O)ccc12)C1CCCCC1 [Example 72, N-Cyclohexyl-3-(3-fluorophenethoxy)-N-(2-(2-(8-hydroxy-2-oxo-1,2-dihydroquinolin-5-yl)ethylamino)ethyl)propanamide hydrochloride] | 0.92
